Measured values as given in publication PMC6152123, “Sites for Dynamic Protein-Carbohydrate Interactions of O- and C-Linked Mannosides on the E. coli FimH Adhesin” (Molecules : A Journal of Synthetic Chemistry and Natural …, 2017).
Like-named read-outs stand apart in the source and are kept apart here.

Legend:
FimH = settings: read-out: Kd ITC (converted), cited from earlier work
FimH lectin domain [1] = molecular target: T1, FimH lectin domain (Escherichia coli, UniProt P08191); assay: biochemical; type: binding, E. coli strain J96
FimH lectin domain [2] = molecular target: T1, FimH lectin domain; settings: highest-affinity natural epitope for FimH, Fab IC10 chip; read-out: Kd; cited from earlier work
[3] = Kd SPR (nM), solution affinity by SPR competition, Tables 1-3
[4] = Kd (nM), Table 4, SPR detection, sulfonamide and amide spacers
[5] = Kd (nM), Table 5, SPR, C-linked mannopyranosides
[6] = Table 5, SPR, C-linked mannopyranosides

T1 sequence (P08191 22-179 limits assumed): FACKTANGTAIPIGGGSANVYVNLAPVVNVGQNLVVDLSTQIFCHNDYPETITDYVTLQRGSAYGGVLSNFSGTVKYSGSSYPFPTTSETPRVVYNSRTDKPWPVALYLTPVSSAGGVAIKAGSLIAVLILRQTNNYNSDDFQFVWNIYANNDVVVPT

CCCCO[C@H]1O[C@H](CO)[C@@H](O)[C@H](O)[C@@H]1O [Compound 4, reference compound]
Kd (FimH; Tables 1-3): 156 nM

OC[C@H]1O[C@H](OCCCc2ccc(-c3ccccc3)cc2)[C@@H](O)[C@@H](O)[C@@H]1O [Compound 27]
Kd (FimH; Tables 1-3): 1.5 nM | Kd (FimH lectin domain [1]; [3]): 10 ± 0.2 nM

O=C(C[C@H]1O[C@H](CO)[C@@H](O)[C@H](O)[C@@H]1O)Nc1ccccc1 [Compound 91]
Kd (FimH lectin domain [1]; [4]): 372 ± 26 nM

OC[C@H]1O[C@H](CCCc2ccccc2)[C@@H](O)[C@@H](O)[C@@H]1O [Compound 119]
Kd (FimH lectin domain [1]; [5]): 49 ± 5.3 nM

OCC#Cc1ccc(O[C@H]2O[C@H](CO)[C@@H](O)[C@H](O)[C@@H]2O)cc1 [Compound 61]
Kd (FimH lectin domain [1]; Kd SPR (nM), Table S2): 6.9 ± 1 nM | Kd (FimH lectin domain [1]; [3]): 36.9 ± 3 nM

OC[C@H]1O[C@H](OCC#Cc2ccccc2)[C@@H](O)[C@@H](O)[C@@H]1O [Compound 50]
Kd (FimH lectin domain [1]; [3]): 168 ± 15 nM

CCCCSCCC[C@H]1O[C@H](CO)[C@@H](O)[C@H](O)[C@@H]1O [Compound 107]
Kd (FimH lectin domain [1]; [3]): 22 ± 2.8 nM

OC[C@H]1O[C@H](C/C=C/c2ccccc2-c2ccccc2)[C@@H](O)[C@@H](O)[C@@H]1O [Compound 117]
Kd (FimH lectin domain [1]; [5]): 6.9 ± 5.7 nM | fold by which inhibition potential exceeds parent 115 (FimH lectin domain [1]; SPR Kd, Table 5): ~26 fold

O=C(C[C@H]1O[C@H](CO)[C@@H](O)[C@H](O)[C@@H]1O)NCc1ccccc1 [Compound 92]
Kd (FimH lectin domain [1]; [4]): 397 ± 83 nM

OC[C@H]1O[C@H](CCCc2ccccc2-c2ccccc2)[C@@H](O)[C@@H](O)[C@@H]1O [Compound 121]
Kd (FimH lectin domain [1]; [5]): 123 ± 21 nM

OC[C@H]1O[C@H](OC/C=C/c2cccc3ccccc23)[C@@H](O)[C@@H](O)[C@@H]1O [Compound 25]
Kd (FimH; Tables 1-3): 71 nM | Kd (FimH lectin domain [1]; [3]): 5 ± 1.4 nM

OC[C@H]1O[C@H](C/C=C/c2cccc3ccccc23)[C@@H](O)[C@@H](O)[C@@H]1O [Compound 118]
Kd (FimH; Table S2): 23 ± 5.5 nM | Kd (nM) (FimH lectin domain [1]; [6]): nf | Kd SPR (nM) (FimH lectin domain [1]; Table S2): nf

O=C(C[C@H]1O[C@H](CO)[C@@H](O)[C@H](O)[C@@H]1O)NCCc1ccc(O)cc1 [Compound 96]
Kd (FimH lectin domain [1]; [4]): 970 ± 382 nM

OC[C@H]1O[C@H](OCC#Cc2ccccc2-c2ccccc2)[C@@H](O)[C@@H](O)[C@@H]1O [Compound 52]
Kd (FimH lectin domain [1]; [3]): 2250 ± 291 nM

CC(C)(C)c1ccc(S(=O)(=O)NCCO[C@H]2O[C@H](CO)[C@@H](O)[C@H](O)[C@@H]2O)cc1 [Compound 73]
Kd (FimH lectin domain [1]; [4]): 122 ± 11 nM

OC[C@H]1O[C@H](OCC#Cc2ccc(-c3ccccc3)cc2)[C@@H](O)[C@@H](O)[C@@H]1O [Compound 51]
Kd (FimH lectin domain [1]; [3]): 405 ± 24 nM

CCC[C@H]1O[C@H](CO)[C@@H](O)[C@H](O)[C@@H]1O [Compound 123]
Kd (FimH lectin domain [1]; [5]): 266 ± 26 nM

OC[C@H]1O[C@H](OC/C=C/c2ccccc2-c2ccccc2)[C@@H](O)[C@@H](O)[C@@H]1O [Compound 24]
Kd (FimH lectin domain [1]; [3]): 4.3 ± 0.8 nM

OC[C@H]1O[C@H](OCCCc2cccc3ccccc23)[C@@H](O)[C@@H](O)[C@@H]1O [Compound 29]
Kd (FimH lectin domain [1]; [3]): 22 ± 3 nM

O=[N+]([O-])c1ccc(S(=O)(=O)NCCO[C@H]2O[C@H](CO)[C@@H](O)[C@H](O)[C@@H]2O)cc1 [Compound 71]
Kd (FimH lectin domain [1]; [4]): 408 ± 52 nM

CCSCCCO[C@H]1O[C@H](CO)[C@@H](O)[C@H](O)[C@@H]1O [Compound 38]
Kd (FimH lectin domain [1]; [3]): 14 ± 7.6 nM

CC(=O)N[C@H]1[C@H](O[C@H]2[C@H](O)[C@@H](NC(C)=O)C(O)O[C@@H]2CO)O[C@H](CO)[C@@H](O[C@@H]2O[C@H](CO[C@H]3O[C@H](CO)[C@@H](O)[C@H](O)[C@@H]3O)[C@@H](O)[C@H](O[C@H]3O[C@H](CO)[C@@H](O)[C@H](O)[C@@H]3O)[C@@H]2O)[C@@H]1O (stereo partly shown) [oligomannoside-3, reference compound]
Kd (FimH lectin domain [2]): 20 nM | KA (FimH lectin domain [1]; Figure S19, fit of solution affinity model to inhibition curve): 49462067.1 M⁻¹ | Kd (FimH lectin domain [1]; Figure S19, fit of solution affinity model to inhibition curve, read-out: KD): 20.2 nM

OC[C@H]1O[C@H](OC/C=C/c2ccc(-c3ccccc3)cc2)[C@@H](O)[C@@H](O)[C@@H]1O [Compound 23]
Kd (FimH lectin domain [1]; [3]): 3 ± 1.1 nM

OC[C@H]1O[C@H](CCCc2ccc(-c3ccccc3)cc2)[C@@H](O)[C@@H](O)[C@@H]1O [Compound 120]
Kd (nM) (FimH lectin domain [1]; [6]): nf | Kd SPR (nM) (FimH lectin domain [1]; Table S2): nf

CC(=O)Nc1ccc(NC(=O)C[C@H]2O[C@H](CO)[C@@H](O)[C@H](O)[C@@H]2O)cc1 [Compound 94]
Kd (FimH lectin domain [1]; [4]): 227 ± 54 nM

OC[C@H]1O[C@H](OCC#Cc2cccs2)[C@@H](O)[C@@H](O)[C@@H]1O [Compound 54]
Kd (FimH lectin domain [1]; [3]): 133 ± 31 nM

C#CCO[C@H]1O[C@H](CO)[C@@H](O)[C@H](O)[C@@H]1O [Compound 41]
Kd (FimH lectin domain [1]; [3]): 490 ± 55 nM

COCC#Cc1ccc(O[C@H]2O[C@H](CO)[C@@H](O)[C@H](O)[C@@H]2O)cc1 [Compound 62]
Kd (FimH; Tables 1-3): 59.5 ± 2.3 nM | Kd SPR (nM) (FimH lectin domain [1]; Table S2): nf | Kd SPR (nM) (FimH lectin domain [1]; solution affinity by SPR competition, Tables 1-3): nf *

O=C(C[C@H]1O[C@H](CO)[C@@H](O)[C@H](O)[C@@H]1O)Nc1ccc(O)cc1 [Compound 95]
Kd (FimH lectin domain [1]; [4]): 328 ± 63 nM
